Test results reported in patent US8987328B2, “Esters of capsaicinoids as dietary supplements” (Trinity Laboratories, Inc., priority 2008, dated 2015).
Read-outs that look alike come from different tables or passages of the source.

Legend:
[1] = design: species or system human; settings: in vivo
[2] = design: species or system human; settings: in vivo; remark: listed apart in the source
[3] = in vivo, po
[4] = cited from earlier work
[5] = p<0.05, cited from earlier work
[6] = cited from earlier work; remark: listed apart in the source
[7] = i.v. administration, rats; cited from earlier work
[8] = 30% lard diet, capsaicin 0.14% of diet
[9] = cholesterol-free diet, 4 mg per animal daily, relative to controls
[10] = diet with 0.2% cholesterol, 4 mg per animal daily

Palmitoyl Ester of Capsaicin USP [palmitoyl-capsaicin USP]
LDL cholesterol [1]: ~110 mg/dL | cholesterol level [1]: normal level | body weight [2]: maintained an average weight | body weight fluctuation over and under average [2]: 2-3 pounds | burning or irritation in the stomach [3]: No individual complained of burning or irritation in the stomach

COc1cc(CNC(=O)CCCCCCC(C)C)ccc1O [dihydrocapsaicin]
HDL-cholesterol ([4]; in vivo): increased significantly | VLDL cholesterol ([4]; in vivo): decreased significantly | VLDL-cholesterol ([4]; in vivo): reduced | serum triglyceride concentrations ([4]; in vivo): Neither drug had an effect | triglycerides ([4]; in vivo): decreased significantly

COc1cc(CNC(=O)CCCCC=CC(C)C)ccc1O [capsaicin, 8-methyl-N-vanillyl-6-nonenamide]
plasma insulin levels ([5]; OGTT in dogs): elevation | blood glucose levels ([5]; at 2.5 h in OGTT, n=6, control 6.40+/−0.13): 4.91 mM | serum triglyceride levels ([6]; 30% lard diet, capsaicin 0.14% of diet, vs high-fat diet without capsaicin): significantly lower | levels of cholesterol [6, 8]: not affected | levels of free fatty acids [6, 8]: not affected | levels of pre-beta-lipoprotein [6, 8]: not affected | weight of perirenal adipose tissue ([6]; high-fat diet rats): reduced in a dose-dependent manner | HDL-cholesterol [4, 9]: increased significantly | LDL-cholesterol [4, 9]: increased significantly | VLDL cholesterol [4, 9]: decreased significantly | total cholesterol [4, 9]: increased significantly | serum triglyceride concentrations ([4]; cholesterol-free diet, 4 mg per animal daily): Neither drug had an effect | HDL-cholesterol [4, 10]: increased | VLDL-cholesterol [4, 10]: reduced | time to distribution to brain, spinal cord, liver and blood [7]: ≤ 20 min
